Test results as given in PubChem BioAssay AID2060490 (Molecular Pharmacology Branch, DTP, NCI, 2025).
Values joined by “and” are separate entries in the source; they are usually repeats but may differ in a detail not shown here. Equal entries are not always repeated. One block for each molecule: values may come before it.

System: 885512-296-R-J2-PDC complex spheroid viability
Test: Anticancer human tumor 885512-296-R-J2-PDC patient-derived breast carcinoma cell line growth inhibition [GQUAD]
Settings: for viability, T/C: stronger effect = lower value
Description: DNA G-quadruplex Stabilizer Agents in Combinations in Complex Spheroids
A high-throughput screen of multi-cell type tumor spheroids was designed to identify active combinations of DNA G-quadruplex stabilizer agents and targeted small molecules. Complex spheroids include a stromal component modeled by human endothelial cells (HUVEC) and fibroblasts modeled by human mesenchymal stem cells (MSCs). The concentration ranges selected for each drug and investigational agent were based upon clinically achievable concentrations if the clinical Cmax of the agent was known.
Compounds. The drugs and investigational agents: pidnarulex (CX-5461; NSC782164), APTO-253 (NSC789042), BRACO-19 (NSC847499), peposertib (NSC802822), ceralasertib (NSC780249), elimusertib (NSC800525), camonsertib (NSC841442), AZD-1390 (NSC803789), olaparib (NSC753686), talazoparib (NSC767125), ART-558 (NSC835418), sotorasib (NSC818433), MRTX-1133 (NSC836407), SN-38 (NSC673596), topotecan (NSC609699), etoposide (NSC141540), doxorubicin (NSC123127), gemcitabine (NSC613327), 5-fluorouracil (NSC19893), paclitaxel (NSC125973), vemurafenib (NSC761431), panobinostat (NSC761190), R-306465 (JNJ-16241199; NSC773264), adavosertib (NSC754352), TP-3654 (NSC805149), carboplatin (NSC241240), KSQ-4279 (NSC840948), and staurosporine (NSC755774) were obtained from the National Cancer Institute (NCI) Developmental Therapeutics Program Chemical Repository (34). The FDA-approved anticancer drug set is available from the NCI Developmental Therapeutics Program. […] The stock solutions were prepared in dimethyl sulfoxide (DMSO, Sigma-Aldrich, St. Louis, MO, cat. D2650) at 800-fold the tested concentration and stored at -70 degrees C prior to their use. All drugs and investigational agents were tested over a range starting from a high concentration at or near the clinical Cmax and decreasing in half-log increments. If the clinical Cmax for an agent had not been determined, the highest concentration tested was 10 microM.
2.3 Cell Culture. All cells were maintained in an incubator at 37 degrees C and 5% CO2 with 95% humidity. The PDC lines were cultured according to standard operating procedures established by the NCI PDMR. All PDCs were thawed and cultured in Matrigel-coated flasks prepared with a working solution of 1X Ham's F-12 nutrient mix, without supplementation (Invitrogen, cat. 11765054), 100 U/mL penicillin-streptomycin (Invitrogen, cat. 15140122), and 2.5% Matrigel (Corning Inc., cat. 354248) for the first three passages. The 857933-349-R-J2-PDC line was cultured in 6C/Colon 1B media, which includes advanced DMEM/F-12 (Thermo Fisher Scientific, cat. 12634028), 10 mM HEPES (Thermo Fisher Scientific, cat. 15630080), 1X GlutaMAX supplement (Thermo Fisher Scientific, cat. 35050061), 0.1 mg/mL primocin (InvivoGen, cat. ant-pm-2), 10% defined fetal bovine serum, heat inactivated (HyClone Laboratories Inc., cat. SH30070.03HI), 50% L-WRN conditioned media (ATCC, cat. CRL-3276), 1.25 mM N-Acetyl-L-cysteine (Sigma-Aldrich, cat. A9165), 10 mM nicotinamide (Sigma-Aldrich, cat. N0636), 1X B-27 supplement (Thermo Fisher Scientific, cat. 17504044), 1X N-2 supplement (Thermo Fisher Scientific, cat. 17502048), 10 microM Y-27632 dihydrochloride (Tocris Bioscience, cat. 1254), and 50 ng/mL human EGF recombinant protein (Thermo Fisher Scientific, cat. PHG0311). The 485176-168-R4-J1-PDC line was cultured in Panc media, which includes all 6C/Colon 1B media components plus 100 ng/mL human FGF-10 (Thermo Fisher Scientific, cat. 100-26), 500 nM SB-431542 (Selleckchem, cat. S1067), and gastrin (Tocris, cat. 3006).
[…]
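Note: spheroids exposed to the compounds for one week.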
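Throughout, for viability, T/C: percent of tumor spheroid viability relative to DMSO vehicle control wells.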

Structure (SMILES): CN(C)c1ccc(Nc2c3ccc(NC(=O)CCN4CCCC4)cc3nc3cc(NC(=O)CCN4CCCC4)ccc23)cc1
viability, T/C (compound 0.0316 µM): 100% [middle of 12 runs]
viability, T/C (compound 0.1 µM): 102% [middle of 12 runs]
viability, T/C (compound 0.316 µM): 105% [middle of 12 runs]
viability, T/C (compound 1 µM): 102% [middle of 12 runs]
viability, T/C (compound 3.16 µM): 103% [middle of 12 runs]
viability, T/C (compound 10 µM): 21.1% [middle of 12 runs]
IC50 (compound alone, run of 04/22/2024): 6.43 µM [middle of 11 runs]

Structure (SMILES): Cc1[nH]c2ccccc2c1CCNCc1ccc(/C=C/C(=O)NO)cc1
viability, T/C (compound 0.000999 µM): 108% and 90.8% and 92.3%
viability, T/C (compound 0.00316 µM): 93.8% and 86.2% and 86.1%
viability, T/C (compound 0.00999 µM): 96.1% and 71.2% and 73.6%
viability, T/C (compound 0.0316 µM): 112% and 42% and 57.7%
viability, T/C (compound 0.0999 µM): 94.9% and 25.6% and 28.9%

Structure (SMILES): CC1COCCN1c1cc(C2(S(C)(=N)=O)CC2)nc(-c2ccnc3[nH]ccc23)n1 (stereo not given)
viability, T/C (compound 0.0316 µM): 103% (2×) and 99.8%
viability, T/C (compound 0.1 µM): 106% and 90.2% and 88.9%
viability, T/C (compound 0.316 µM): 98.9% and 83.5% and 84.4%
viability, T/C (compound 1 µM): 43% and 40% and 30%
viability, T/C (compound 3.16 µM): 5.74% and 6.03% and 4.64%
viability, T/C (compound 10 µM): 4.07% and 4.55% and 4.14%
IC50 (curve of compound): 865 nM and 752 nM and 652 nM

Structure (SMILES): C=CCn1c(=O)c2cnc(Nc3ccc(N4CCN(C)CC4)cc3)nc2n1-c1cccc(C(C)(C)O)n1
viability, T/C (compound 0.0316 µM): 94.9% and 110% and 103%
viability, T/C (compound 0.1 µM): 92.2% and 91.9% and 92.6%
viability, T/C (compound 0.316 µM): 99.1% and 52.3% and 57.8%
viability, T/C (compound 1 µM): 125% and 7.26% and 11%

Structure (SMILES): O=c1[nH]cc(F)c(=O)[nH]1
viability, T/C (compound 0.0316 µM): 94.2% and 107% and 96.5%
viability, T/C (compound 0.1 µM): 102% and 97.5% and 105%
viability, T/C (compound 0.316 µM): 113% and 107% and 99.3%
viability, T/C (compound 1 µM): 123% and 89.3% and 95.8%
viability, T/C (compound 3.16 µM): 71.7% and 58.4% and 66%
viability, T/C (compound 10 µM): 52.8% and 55% and 55.4%
IC50 (curve of compound): > 10000 nM

Structure (SMILES): Nc1ccn(C2OC(CO)C(O)C2(F)F)c(=O)n1 (stereo not given)
viability, T/C (compound 0.0316 µM): 14.6% and 8.23% and 13.1%
viability, T/C (compound 0.1 µM): 4.17% and 2.77% and 2.12%
viability, T/C (compound 0.316 µM): 2.96% and 2.39% and 3.6%
viability, T/C (compound 1 µM): 3.23% and 3.33% and 3.21%
viability, T/C (compound 3.16 µM): 4.11% and 2.94% and 3.73%
viability, T/C (compound 10 µM): 3.17% and 3.4% and 3.47%
IC50 (curve of compound): < 31.6 nM

Structure (SMILES): C=CC(=O)N1CCN(c2nc(=O)n(-c3c(C)ccnc3C(C)C)c3nc(-c4c(O)cccc4F)c(F)cc23)C(C)C1 (stereo not given) + Cc1[nH]c2ccc(F)cc2c1-c1nc2c3cccnc3c3ncccc3c2[nH]1
IC50 (curve of first compound, second compound 0.0316 µM): > 10000 nM
IC50 (curve of first compound, second compound 0.1 µM): > 10000 nM
IC50 (curve of first compound, second compound 0.316 µM): > 10000 nM
IC50 (curve of first compound, second compound 1 µM): > 10000 nM
IC50 (curve of first compound, second compound 3.16 µM): < 31.6 nM
IC50 (curve of first compound, second compound 10 µM): < 31.6 nM
viability, T/C (second compound 0.0316 µM, first compound 0.0316 µM): 122%
viability, T/C (second compound 0.0316 µM, first compound 0.1 µM): 91%
viability, T/C (second compound 0.0316 µM, first compound 0.316 µM): 84.7%
viability, T/C (second compound 0.0316 µM, first compound 1 µM): 106%
viability, T/C (second compound 0.0316 µM, first compound 3.16 µM): 111%
viability, T/C (second compound 0.0316 µM, first compound 10 µM): 96.3%
viability, T/C (second compound 0.1 µM, first compound 0.0316 µM): 118%
viability, T/C (second compound 0.1 µM, first compound 0.1 µM): 96.2%
viability, T/C (second compound 0.1 µM, first compound 0.316 µM): 97.4%
viability, T/C (second compound 0.1 µM, first compound 1 µM): 102%
viability, T/C (second compound 0.1 µM, first compound 3.16 µM): 103%
viability, T/C (second compound 0.1 µM, first compound 10 µM): 93.4%
viability, T/C (second compound 0.316 µM, first compound 0.0316 µM): 92.9%
viability, T/C (second compound 0.316 µM, first compound 0.1 µM): 103%
viability, T/C (second compound 0.316 µM, first compound 0.316 µM): 102%
viability, T/C (second compound 0.316 µM, first compound 1 µM): 102%
viability, T/C (second compound 0.316 µM, first compound 3.16 µM): 91.9%
viability, T/C (second compound 0.316 µM, first compound 10 µM): 88.8%
viability, T/C (second compound 1 µM, first compound 0.0316 µM): 78.9%
viability, T/C (second compound 1 µM, first compound 0.1 µM): 79.1%
viability, T/C (second compound 1 µM, first compound 0.316 µM): 95.7%
viability, T/C (second compound 1 µM, first compound 1 µM): 90%
viability, T/C (second compound 1 µM, first compound 3.16 µM): 77.3%
viability, T/C (second compound 1 µM, first compound 10 µM): 72.1%
viability, T/C (second compound 3.16 µM, first compound 0.0316 µM): 30.6%
viability, T/C (second compound 3.16 µM, first compound 0.1 µM): 22.9%
viability, T/C (second compound 3.16 µM, first compound 0.316 µM): 21.2%
viability, T/C (second compound 3.16 µM, first compound 1 µM): 31.2%
viability, T/C (second compound 3.16 µM, first compound 3.16 µM): 32.9%
viability, T/C (second compound 3.16 µM, first compound 10 µM): 27.2%
viability, T/C (second compound 10 µM, first compound 0.0316 µM): 1.88%
viability, T/C (second compound 10 µM, first compound 0.1 µM): 1.76%
viability, T/C (second compound 10 µM, first compound 0.316 µM): 2.07%
viability, T/C (second compound 10 µM, first compound 1 µM): 3.47%
viability, T/C (second compound 10 µM, first compound 3.16 µM): 6.47%
viability, T/C (second compound 10 µM, first compound 10 µM): 3.97%

Further lines, with some results ahead:

IC50 (curve of compound): 843 nM and 618 nM and 573 nM
Structure (SMILES): COc1cc(C2c3cc4c(cc3C(OC3OC5COC(C)OC5C(O)C3O)C3COC(=O)C23)OCO4)cc(OC)c1O (stereo not given)
viability, T/C (compound 0.0316 µM): 100% and 98.3% and 90.5%
viability, T/C (compound 0.1 µM): 97.9% and 98.6% and 88.2%
viability, T/C (compound 0.316 µM): 87.8% and 77.3% and 74.2%
viability, T/C (compound 1 µM): 43.1% and 30.2% and 27.2%
viability, T/C (compound 3.16 µM): 15.4% and 11.7% and 11.3%
viability, T/C (compound 10 µM): 9.14% and 7.67% and 7.65%

IC50 (curve of compound): > 10000 nM
Structure (SMILES): C=CC(=O)N1CCN(c2nc(=O)n(-c3c(C)ccnc3C(C)C)c3nc(-c4c(O)cccc4F)c(F)cc23)C(C)C1 (stereo not given)
viability, T/C (compound 0.0316 µM): 99% and 103% and 101%
viability, T/C (compound 0.1 µM): 91% and 94.9% and 108%
viability, T/C (compound 0.316 µM): 109% and 105% and 97.4%
viability, T/C (compound 1 µM): 109% and 98.9% and 95.3%
viability, T/C (compound 3.16 µM): 99.7% and 103% and 91.2%
viability, T/C (compound 10 µM): 96.4% (2×) and 95.7%

IC50 (curve of compound): > 10000 nM
Structure (SMILES): COc1ccc([C@@H](O)c2cc(-c3ncnc4cc(N5CCOCC5)ccc34)c(F)cc2Cl)nn1
viability, T/C (compound 0.0316 µM): 110% and 101% and 96%
viability, T/C (compound 0.1 µM): 103% and 106% and 92.4%
viability, T/C (compound 0.316 µM): 101% and 89.6% and 92.7%
viability, T/C (compound 1 µM): 97.4% and 79.5% and 91.5%
viability, T/C (compound 3.16 µM): 79.2% and 89.1% and 88.5%
viability, T/C (compound 10 µM): 64.3% and 53.6% and 58.4%
